{"source": "paper PMC3006138", "about": "“Fexinidazole – A New Oral Nitroimidazole Drug Candidate Entering Clinical Development for the Treatment of Sleeping Sickness” (PLoS Neglected Tropical Diseases, 2010)", "key": {"[1]": {"tested_on": "bone marrow polychromatic erythrocytes", "assay": "In vivo bone marrow micronucleus test", "parameters": "species or system mouse", "protocol": "Groups of six young adult male Crl:CD-1 (ICR) mice were treated with fexinidazole at two oral doses of 0, 500, 1000, or 2000 mg/kg given 24 h apart, and bone marrows were harvested 24 h after the second dose. Slides of bone marrow cells were prepared, Giemsa stained, and 2000 polychromatic erythrocytes per animal were scored for micronuclei."}, "[2]": {"assay": "Stability of drug substance and dosing suspensions", "type": "physicochemical", "settings": "stability data to date", "protocol": "page 4: […] Pharmacokinetic Report for the study No. 0403-2007 4. METHODS […] […] 4.2. […] The suspensions were stored at +4°C. […] Three samples were analyzed for each suspension. 4.3. […] Blood was taken at […] 4.4."}, "[3]": {"assay": "Cardiovascular safety by telemetry", "settings": "single oral dose", "protocol": "Cardiovascular safety parameters were assessed in beagle dogs. Four adult (>1 year old) beagle dogs were given oral doses of fexinidazole at 100, 300 and 1000 mg/kg in an escalating dose design.\n6.3. Treatment and Experimental Design\nExperimental Day Treatmenta Dose (mg/kg) Volume Animal numbers (males) […]\na) Animals were treated following an escalating dose design with an adequate washout (at least 5 half lives of the longer lasting metabolite) between doses\nDoses of 100, 300 and 1000 mg/kg of fexinidazole were selected based on the results of a […]\nThe oral route is that intende d for clinical administration.\n6.3.1. Clinical Observation […]\ndosing. Body weights are not reported here but they are archived with the study file.\n6.3.2. Telemetry recordings\nOn the day of dosing, telemetry signals from each animal were collected continuously […]\nThe following parameters were calculated:\n− Systolic blood pressure (SBP, mmHg)\n− Diastolic blood pressure (DBP, mmHg)\n− Average blood pressure (ABP, mmHg)\n− Heart rate (HR, bpm, from the blood pressure signal)\n− ECG intervals (RR, PR, QRS and QT, ms)\n− Body temperature (BT, °C)\nAll the above-mentioned parameters were extracted automatically by the Notocord HEM acquisition software (Notocord, Croissy-sur-Seine, France) as the average value of 10-second recordings. […]"}, "[4]": {"assay": "Preliminary embryo-foetal and early postnatal development study", "type": "in vivo, rat", "settings": "pregnant rats", "protocol": "In the rat study, fexinidazole was administered orally by gavage once a day from day 6 to day 17 of gestation or from day 6 of gestation to day 7 of lactation to 10 mated rat Crl:CD (SD)IGS BR rats[…]/group at doses of 50, 200, or 800 mg/kg/day. A control group received the vehicle alone (5% Tween 80/0.5% methocel)."}}, "data": [{"smiles": "CSc1ccc(OCc2ncc([N+](=O)[O-])n2C)cc1", "note": "[Fexinidazole, 1-methyl-2-((p-(methylthio)phenoxy)methyl)-5-nitroimidazole]", "values": [{"measurement": "Micronucleated PCE/1000", "setting": "[1]; 500 mg/kg po ×2", "value": 1.4}, {"measurement": "PCE/NCE", "setting": "[1]; 500 mg/kg po ×2", "value": 0.82}, {"measurement": "Micronucleated PCE/1000", "setting": "[1]; 1000 mg/kg po ×2", "value": 1.1}, {"measurement": "PCE/NCE", "setting": "[1]; 1000 mg/kg po ×2", "value": 0.75}, {"measurement": "Micronucleated PCE/1000", "setting": "[1]; 2000 mg/kg po ×2", "value": 1.8}, {"measurement": "PCE/NCE", "setting": "[1]; 2000 mg/kg po ×2", "value": 0.89}, {"measurement": "in vivo micronucleus test result", "setting": "[1]; oral doses up to 2 g/kg", "value": "confirmed the lack of clastogenicity"}, {"measurement": "stability", "setting": "[2]", "value": "very stable"}, {"measurement": "NOEL on body temperature", "setting": "[3]", "value": 100, "unit": "mg/kg"}, {"measurement": "NOEL on cardiovascular parameters and ECG intervals", "setting": "[3]", "value": 1000, "unit": "mg/kg"}, {"measurement": "effects on embryo-foetal and early postnatal development", "setting": "[4]", "value": "no adverse effects on embryos/foetuses, parturition, and neonates"}]}]}
